Key:
[1] = target: Recombinant human JAK2 catalytic domain (Homo sapiens (Human), UniProt O60674); experiment: JAK2 inhibition assay; format: biochemical; conditions: semi-quantitative score
How it was run: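 Activity was taken as vehicle cpm minus cpm with 10 μM staurosporine, and inhibition was expressed on that scale. Incubation was 90 min at 30 °C, followed by acid quench, phosphoric acid washes and Microscint counting. Compounds were tested as dose series to obtain IC50.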

MMP13 in SW1353 cells = experiment: OSM/IL-1β signaling assay (MMP13 levels in SW1353 cells); format: cell-based; conditions: Homo sapiens; SW1353 cells, OSM and IL-1β triggered, MMP13 levels 48 hours after triggering; read-out: MMP13 EC50;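 further: secreted MMP13 captured by antibody, activated with APMA and its activity read by fluorescence, inhibition scaled between vehicle-treated triggered wells (0%) and untriggered wells (100%)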
[2] = test system: JAK-STAT signalling in HeLa cells; experiment: JAK-STAT signalling assay (OSM-triggered pSTAT1(2)-luciferase reporter in HeLa cells); format: cell-based; conditions: Homo sapiens; HeLa cells, OSM-triggered pSTAT1(2)-luciferase reporter; read-out: STAT signalling EC50
How it was run: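 Read-out is oncostatin M–driven pSTAT1(2)-luciferase activity, corrected by co-transfected LacZ β-galactosidase, in transiently transfected HeLa cells cultured overnight at 37 °C, 10% CO2. Inhibition percentages against positive and negative controls were plotted across doses to derive EC50.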

[3] = target: Recombinant human JAK1 catalytic domain (Homo sapiens (Human), UniProt P23458); experiment: JAK1 inhibition assay; format: biochemical; conditions: semi-quantitative score
How it was run: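 IC50 values come from dose-response series, with each point expressed as percent inhibition of cpm. Vehicle sets full activity and 10 μM staurosporine sets background. Incorporated radioactivity counted by scintillation after washing with 75 mM phosphoric acid.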

[4] = Microsomal stability, human liver microsomes; format: in vitro ADME; conditions: percentage of compound remaining after 60 minutes, 3 μM compound
Procedure: (§1) 40 μL of deionised water was added to a well of a polypropylene Matrix 2D barcode labelled storage tube (Thermo Scientific) and pre-incubated at 37° C.
(§2) A co-factor containing MgCl2, glucose-6-phosphate and NADP+ was prepared in deionised water and placed on ice before use.
(§3) A final working solution containing liver microsomes (Xenotech of a species of interest (human, mouse, rat, dog), previously described G6PDH and co-factors was prepared and this mix was incubated for no longer than 20 minutes at room temperature.
(§4) 30 μL of the pre-heated compound dilution was added to 40 μL of pre-heated water in the Matrix tubes and 30 μL of the microsomal mix was added.
(§5) To measure percentage remaining of compound at time zero MeOH or ACN was added (1:1) to the well before adding the microsomal mix.
(§6) The samples which were not stopped are incubated at 37° C., 300 rpm and after 1 hour of incubation the reaction was stopped with MeOH or ACN (1:1).
(§7) After stopping the reaction the samples were mixed and placed on ice for 30 min to precipitate the proteins.
(§8) The samples were analyzed on LCMS with a flow rate of 1 mL/min. Solvent A was 15 mM ammonia and solvent B was methanol or acetonitrile, depending on the stop solution used. […] The percentage remaining after 1 hour incubation was calculated from time 0 and was calculated as the percentage remaining.
(§9) The data on microsomal stability are expressed as a percentage of the total amount of compound remaining after 60 minutes.

[5] = Microsomal stability, rat liver microsomes; format: in vitro ADME; conditions: percentage of compound remaining after 60 minutes, 3 μM compound
Procedure: as §1, §2, §3, §4, §5, §6, §7, §8, §9

Sequence of Recombinant human JAK2 catalytic domain (O60674 808-1132): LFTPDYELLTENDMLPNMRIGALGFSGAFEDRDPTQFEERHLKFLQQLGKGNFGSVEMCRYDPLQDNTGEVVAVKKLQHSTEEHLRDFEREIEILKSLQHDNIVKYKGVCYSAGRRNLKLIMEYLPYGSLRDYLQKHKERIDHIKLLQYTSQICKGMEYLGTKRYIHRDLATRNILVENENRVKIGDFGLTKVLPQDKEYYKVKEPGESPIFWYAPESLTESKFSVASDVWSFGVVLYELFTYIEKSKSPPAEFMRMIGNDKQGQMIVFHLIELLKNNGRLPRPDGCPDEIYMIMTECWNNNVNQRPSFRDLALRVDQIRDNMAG
Sequence of Recombinant human JAK1 catalytic domain (P23458 850-1154): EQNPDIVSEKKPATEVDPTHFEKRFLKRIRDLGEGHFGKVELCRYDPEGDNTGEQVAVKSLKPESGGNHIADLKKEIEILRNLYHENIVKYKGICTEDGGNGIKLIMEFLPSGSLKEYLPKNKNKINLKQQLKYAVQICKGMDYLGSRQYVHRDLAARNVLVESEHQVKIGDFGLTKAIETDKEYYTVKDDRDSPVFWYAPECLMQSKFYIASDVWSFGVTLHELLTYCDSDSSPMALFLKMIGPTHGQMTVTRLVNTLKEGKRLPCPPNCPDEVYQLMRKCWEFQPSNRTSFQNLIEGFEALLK

SMILES	IC50 [1] [nM]	EC50 (MMP13 in SW1353 cells) [nM]	EC50 [2] [nM]	IC50 [3] [nM]	Microsomal Stability Human (%) [4]	Microsomal Stability Rat (%) [5]
O=C(Nc1nc2cccc(-c3ccc(-c4ccccc4)cc3)n2n1)C1CC1 [Compound 7, N-(5-(biphenyl-4-yl)-[1,2,4]triazolo[1,5-a]pyridin-2-yl)cyclopropanecarboxamide]	101 to 500	> 1000	> 1000	< 100	** (** 26-50)	** (** 26-50)
O=C(Nc1ccc(-c2cccc3nc(NC(=O)C4CC4)nn23)cc1)c1ccccc1 [Compound 21, N-(4-(2-(cyclopropanecarboxamido)-[1,2,4]triazolo[1,5-a]pyridin-5-yl)phenyl)benzamide]	101 to 500	> 1000	> 1000	< 100	*** (*** 51-75)	**** (**** 76-100)
O=C(Cc1ccccc1)Nc1ccc(-c2cccc3nc(NC(=O)C4CC4)nn23)cc1 [Compound 23, N-(5-(4-(2-phenylacetamido)phenyl)-[1,2,4]triazolo[1,5-a]pyridin-2-yl)cyclopropanecarboxamide]	101 to 500	> 1000	> 1000	< 100	* (* 0-25)	** (** 26-50)
O=C(Nc1nc2cccc(-c3ccc(OCCOc4ccc(F)cc4)cc3)n2n1)C1CC1 [Compound 115, N-(5-(4-(2-(4-fluorophenoxy)ethoxy)phenyl)-[1,2,4]triazolo[1,5-a]pyridin-2-yl)cyclopropanecarboxamide]	101 to 500	> 1000	> 1000	< 100	*** (*** 51-75)	** (** 26-50)
O=C(Nc1nc2cccc(-c3ccc(OCc4ccc[n+]([O-])c4)cc3)n2n1)C1CC1 [Compound 196, Cyclopropanecarboxylic acid {5-[4-(1-hydroxy-pyridin-3-ylmethoxy)-phenyl]-[1,2,4]triazolo[1,5-a]pyridin-2-yl}-amide]	101 to 500	> 1000	> 1000	< 100	**** (**** 76-100)	**** (**** 76-100)
O=C(Nc1nc2cccc(-c3ccc(OCc4ccc(Cl)nc4)cc3)n2n1)C1CC1 [Compound 198, Cyclopropanecarboxylic acid {5-[4-(6-chloro-pyridin-3-ylmethoxy)-phenyl]-[1,2,4]triazolo[1,5-a]pyridin-2-yl}-amide]	< 100	> 1000	101 to 500	< 100	*** (*** 51-75)	*** (*** 51-75)
Cc1noc(C)c1CCOc1ccc(-c2cccc3nc(NC(=O)C4CC4)nn23)cc1 [Compound 201, Cyclopropanecarboxylic acid (5-{4-[2-(3,5-dimethyl-isoxazol-4-yl)-ethoxy]-phenyl}-[1,2,4]triazolo[1,5-a]pyridin-2-yl)-amide]	101 to 500	501 to 1000	101 to 500	< 100	* (* 0-25)	* (* 0-25)
CC(=O)N(Cc1cccnc1)c1ccc(-c2cccc3nc(NC(=O)C4CC4)nn23)cc1 [Compound 202, Cyclopropanecarboxylic acid {5-[4-(acetyl-pyridin-3-ylmethyl-amino)-phenyl]-[1,2,4]triazolo[1,5-a]pyridin-2-yl}-amide]	< 100	> 1000	> 1000	< 100	* (* 0-25)	* (* 0-25)
O=C(Nc1nc2cccc(-c3ccc(CCc4ccccn4)cc3)n2n1)C1CC1 [Compound 211, Cyclopropanecarboxylic Acid {5-[4-(2-pyridin-2-yl-ethyl)-phenyl]-[1,2,4]triazolo[1,5-a]pyridin-2-yl}-amide]	< 100	501 to 1000	501 to 1000	< 100	* (* 0-25)	* (* 0-25)
O=C(Nc1nc2cccc(-c3ccc(CN4CCC(F)CC4)cc3)n2n1)C1CC1 [Compound 233, Cyclopropanecarboxylic acid {5-[4-(4-fluoro-piperidin-1-ylmethyl)-phenyl]-[1,2,4]triazolo[1,5-a]pyridin-2-yl}-amid]	< 100	501 to 1000	> 1000	< 100	*** (*** 51-75)	** (** 26-50)
O=C(Nc1nc2cccc(-c3ccc(CN4CCN(CC(F)(F)F)CC4)cc3)n2n1)C1CC1 [Compound 241, Cyclopropanecarboxylic acid (5-{4-[4-(2,2,2-trifluoro-ethyl)-piperazin-1-ylmethyl]-phenyl}-[1,2,4]triazolo[1,5-a]pyridin-2-yl)-amide]	101 to 500	> 1000	501 to 1000	< 100	*** (*** 51-75)	**** (**** 76-100)

More lines, now with the values ahead:

IC50 [1] [nM]	EC50 (MMP13 in SW1353 cells) [nM]	EC50 [2] [nM]	IC50 [3] [nM]	Microsomal Stability Human (%) [4]	Microsomal Stability Rat (%) [5]	SMILES
< 100	1 to 500	101 to 500	< 100	*** (*** 51-75)	** (** 26-50)	O=C(Nc1nc2cccc(-c3ccc(CNc4ccc(Cl)cc4F)cc3)n2n1)C1CC1 [Compound 212, Cyclopropanecarboxylic acid (5-{4-[(4-chloro-2-fluoro-phenylamino)-methyl]-phenyl}-[1,2,4]triazolo[1,5-a]pyridin-2-yl)-amide]
< 100	> 1000	101 to 500	< 100	* (* 0-25)	* (* 0-25)	N#CCc1ccc(NCc2ccc(-c3cccc4nc(NC(=O)C5CC5)nn34)cc2)cc1 [Compound 224]
< 100	1 to 500	101 to 500	< 100	* (* 0-25)	* (* 0-25)	N#CCc1ccccc1NCc1ccc(-c2cccc3nc(NC(=O)C4CC4)nn23)cc1 [Compound 225, Cyclopropanecarboxylic acid (5-{4-[(2-cyanomethyl-phenylamino)-methyl]-phenyl}-[1,2,4]triazolo[1,5-a]pyridin-2-yl)-amide]
< 100	501 to 1000	101 to 500	< 100	* (* 0-25)	* (* 0-25)	O=C(Nc1nc2cccc(-c3ccc(CNc4ccccc4F)cc3)n2n1)C1CC1 [Compound 226, Cyclopropanecarboxylic acid (5-{4-[(2-fluoro-phenylamino)-methyl]-phenyl}-[1,2,4]triazolo[1,5-a]pyridin-2-yl)-amide]
–	501 to 1000	> 1000	< 100	** (** 26-50)	**** (**** 76-100)	NC(=O)c1ccc(NCc2ccc(-c3cccc4nc(NC(=O)C5CC5)nn34)cc2)cc1 [Compound 227, 4-{4-[2-(Cyclopropanecarbonyl-amino)-[1,2,4]triazolo[1,5-a]pyridin-5-yl]-benzylamino}-benzamide]
< 100	1 to 500	501 to 1000	< 100	* (* 0-25)	* (* 0-25)	COc1ccc(NCc2ccc(-c3cccc4nc(NC(=O)C5CC5)nn34)cc2)cn1 [Compound 236, Cyclopropanecarboxylic acid (5-{4-[(6-methoxy-pyridin-3-ylamino)-methyl]-phenyl}-[1,2,4]triazolo[1,5-a]pyridin-2-yl)-amide]
< 100	501 to 1000	501 to 1000	< 100	* (* 0-25)	* (* 0-25)	O=C(Nc1nc2cccc(-c3ccc(CNc4ccccn4)cc3)n2n1)C1CC1 [Compound 244, Cyclopropanecarboxylic acid (5-[4-(pyridin-2-ylaminomethyl)-phenyl]-[1,2,4]triazolo[1,5-a]pyridin-2-yl}-amide]

Source: patent US10206907B2, “Compounds useful for the treatment of degenerative and inflammatory diseases” (GALAPAGOS NV, priority 2008, dated 2019)
